Experimental data: ChEMBL document CHEMBL3885881, “DrugMatrix”

Species on record: Rattus norvegicus
Test: DrugMatrix - Regimen: Daily Repeat
Format: toxicity, organism-based, Sprague-Dawley
Set-up: regimen Daily Repeat, gender Male, age 6-8 weeks
Conditions: in vivo, po, route oral GAVAGE, vehicle .5 % CMC; for ABSOLUTE BASOPHIL / ABSOLUTE EOSINOPHIL / ABSOLUTE LYMPHOCYTE / ABSOLUTE MONOCYTE / ABSOLUTE SEGMENTED NEUTROPHIL / BASOPHIL / EOSINOPHIL / ERYTHROCYTE COUNT / HEMATOCRIT / HEMOGLOBIN / LEUKOCYTE COUNT / LYMPHOCYTE / MEAN CORPUSCULAR HEMOGLOBIN / MEAN CORPUSCULAR HEMOGLOBIN CONCENTRATION / MEAN CORPUSCULAR VOLUME / MONOCYTE / NEUTROPHIL / NUCLEATED RED BLOOD CELLS / PLATELET COUNT: tissue Blood; for ALANINE AMINOTRANSFERASE / ALBUMIN / ALKALINE PHOSPHATASE / ASPARTATE AMINOTRANSFERASE / BLOOD UREA NITROGEN / CARBON DIOXIDE / CHLORIDE / CHOLESTEROL / CREATINE PHOSPHOKINASE / CREATININE / GLUCOSE / LACTATE DEHYDROGENASE / LIPASE / PHOSPHORUS / POTASSIUM / SODIUM / TOTAL BILIRUBIN / TOTAL PROTEIN / URIC ACID: tissue Plasma
[1] = 25 mg/kg, 120 h, dose level Low, time 5 day
[2] = 1400 mg/kg, 72 h, dose level High, time 3 day
[3] = 1400 mg/kg, 120 h, dose level High, time 5 day

With C[C@](O)(CS(=O)(=O)c1ccc(F)cc1)C(=O)Nc1ccc(C#N)c(C(F)(F)F)c1 [(R)-BICALUTAMIDE] the “ABSOLUTE BASOPHIL” value [1] was 0 CELLS/uL, the “ABSOLUTE EOSINOPHIL” value [1] was 40.67 CELLS/uL and the “ABSOLUTE LYMPHOCYTE” value [1] was 7260.33 CELLS/uL. For the same molecule, the “ABSOLUTE MONOCYTE” value [1] was 84 CELLS/uL, the “ABSOLUTE SEGMENTED NEUTROPHIL” value [1] was 381.67 CELLS/uL and the BASOPHIL [1] was 0%. The EOSINOPHIL [1] was 0.67%, the “ERYTHROCYTE COUNT” value [1] was 5.41 x10E6/uL and the HEMATOCRIT [1] was 34.23%. For the same molecule, the HEMOGLOBIN [1] was 13.2 G/DL, the “LEUKOCYTE COUNT” value [1] was 7.77 x10E3/uL and the LYMPHOCYTE [1] was 92.33%. For the same molecule, the “MEAN CORPUSCULAR HEMOGLOBIN” value [1] was 24.4 pg, the “MEAN CORPUSCULAR HEMOGLOBIN CONCENTRATION” value [1] was 38.6 G/DL and the “MEAN CORPUSCULAR VOLUME” value [1] was 63.13 fL. For the same molecule, the MONOCYTE [1] was 1.33%, the NEUTROPHIL [1] was 5.67% and the “NUCLEATED RED BLOOD CELLS” value [1] was 0 /100WBC. For the same molecule, the “PLATELET COUNT” value [1] was 1128.67 x10E3/uL, the “ALANINE AMINOTRANSFERASE” value [1] was 51.67 u/L and the ALBUMIN [1] was 4.37 G/DL. The “ALKALINE PHOSPHATASE” value [1] was 358.33 u/L, the “ASPARTATE AMINOTRANSFERASE” value [1] was 82.33 u/L and the “BLOOD UREA NITROGEN” value [1] was 14.67 mg/dL. For the same molecule, the “CARBON DIOXIDE” value [1] was 26.67 mmol/L, the CHLORIDE [1] was 103.67 MEQ/L and the CHOLESTEROL [1] was 67.33 mg/dL. For the same molecule, the “CREATINE PHOSPHOKINASE” value [1] was 179.33 u/L, the CREATININE [1] was 0.2 mg/dL and the GLUCOSE [1] was 149.33 mg/dL. The “LACTATE DEHYDROGENASE” value [1] was 119.67 u/L, the LIPASE [1] was 10 u/L and the PHOSPHORUS [1] was 11.83 mg/dL. For the same molecule, the POTASSIUM [1] was 6.23 MEQ/L, the SODIUM [1] was 148.07 MEQ/L and the “TOTAL BILIRUBIN” value [1] was 0.2 mg/dL. For the same molecule, the “TOTAL PROTEIN” value [1] was 6.5 G/DL, the “URIC ACID” value [1] was 1.37 mg/dL and the “ABSOLUTE BASOPHIL” value [2] was 0 CELLS/uL. The “ABSOLUTE EOSINOPHIL” value [2] was 0 CELLS/uL, the “ABSOLUTE LYMPHOCYTE” value [2] was 11798 CELLS/uL and the “ABSOLUTE MONOCYTE” value [2] was 169.33 CELLS/uL. The “ABSOLUTE SEGMENTED NEUTROPHIL” value [2] was 799.33 CELLS/uL, the BASOPHIL [2] was 0% and the EOSINOPHIL [2] was 0%. The “ERYTHROCYTE COUNT” value [2] was 5.52 x10E6/uL, the HEMATOCRIT [2] was 36.3% and the HEMOGLOBIN [2] was 14.03 G/DL. The “LEUKOCYTE COUNT” value [2] was 12.77 x10E3/uL, the LYMPHOCYTE [2] was 92.67% and the “MEAN CORPUSCULAR HEMOGLOBIN” value [2] was 25.5 pg. The “MEAN CORPUSCULAR HEMOGLOBIN CONCENTRATION” value [2] was 38.63 G/DL, the “MEAN CORPUSCULAR VOLUME” value [2] was 65.97 fL and the MONOCYTE [2] was 1.33%. For the same molecule, the NEUTROPHIL [2] was 6%, the “NUCLEATED RED BLOOD CELLS” value [2] was 0 /100WBC and the “PLATELET COUNT” value [2] was 1068 x10E3/uL. The “ALANINE AMINOTRANSFERASE” value [2] was 48.67 u/L, the ALBUMIN [2] was 4.33 G/DL and the “ALKALINE PHOSPHATASE” value [2] was 367.67 u/L. For the same molecule, the “ASPARTATE AMINOTRANSFERASE” value [2] was 67 u/L, the “BLOOD UREA NITROGEN” value [2] was 16.67 mg/dL and the “CARBON DIOXIDE” value [2] was 23 mmol/L. The CHLORIDE [2] was 102 MEQ/L, the CHOLESTEROL [2] was 87.33 mg/dL and the “CREATINE PHOSPHOKINASE” value [2] was 182.33 u/L. The CREATININE [2] was 0.19 mg/dL, the GLUCOSE [2] was 155.33 mg/dL and the “LACTATE DEHYDROGENASE” value [2] was 84.67 u/L. It also gave an LIPASE [2] of 11 u/L, a PHOSPHORUS [2] of 11.8 mg/dL and a POTASSIUM [2] of 7.17 MEQ/L. For the same molecule, the SODIUM [2] was 143.37 MEQ/L, the “TOTAL BILIRUBIN” value [2] was 0.2 mg/dL and the “TOTAL PROTEIN” value [2] was 6.23 G/DL. The “URIC ACID” value [2] was 1.57 mg/dL, the “ABSOLUTE BASOPHIL” value [3] was 0 CELLS/uL and the “ABSOLUTE EOSINOPHIL” value [3] was 139 CELLS/uL. The “ABSOLUTE LYMPHOCYTE” value [3] was 14390.33 CELLS/uL, the “ABSOLUTE MONOCYTE” value [3] was 36 CELLS/uL and the “ABSOLUTE SEGMENTED NEUTROPHIL” value [3] was 934.67 CELLS/uL. For the same molecule, the BASOPHIL [3] was 0%, the EOSINOPHIL [3] was 1% and the “ERYTHROCYTE COUNT” value [3] was 5.54 x10E6/uL. For the same molecule, the HEMATOCRIT [3] was 34.93%, the HEMOGLOBIN [3] was 13.77 G/DL and the “LEUKOCYTE COUNT” value [3] was 15.5 x10E3/uL. For the same molecule, the LYMPHOCYTE [3] was 92.67%, the “MEAN CORPUSCULAR HEMOGLOBIN” value [3] was 24.87 pg and the “MEAN CORPUSCULAR HEMOGLOBIN CONCENTRATION” value [3] was 39.4 G/DL. For the same molecule, the “MEAN CORPUSCULAR VOLUME” value [3] was 63.03 fL, the MONOCYTE [3] was 0.33% and the NEUTROPHIL [3] was 6%. For the same molecule, the “NUCLEATED RED BLOOD CELLS” value [3] was 0.33 /100WBC, the “PLATELET COUNT” value [3] was 1189.67 x10E3/uL and the “ALANINE AMINOTRANSFERASE” value [3] was 51.33 u/L. The ALBUMIN [3] was 4.37 G/DL, the “ALKALINE PHOSPHATASE” value [3] was 367.67 u/L and the “ASPARTATE AMINOTRANSFERASE” value [3] was 74.33 u/L. For the same molecule, the “BLOOD UREA NITROGEN” value [3] was 16.67 mg/dL, the “CARBON DIOXIDE” value [3] was 27.33 mmol/L and the CHLORIDE [3] was 102 MEQ/L. For the same molecule, the CHOLESTEROL [3] was 87.67 mg/dL, the “CREATINE PHOSPHOKINASE” value [3] was 121.67 u/L and the CREATININE [3] was 0.22 mg/dL. The GLUCOSE [3] was 150.33 mg/dL, the “LACTATE DEHYDROGENASE” value [3] was 70.67 u/L and the LIPASE [3] was 10 u/L. For the same molecule, the PHOSPHORUS [3] was 12.73 mg/dL, the POTASSIUM [3] was 6.81 MEQ/L and the SODIUM [3] was 146.27 MEQ/L. For the same molecule, the “TOTAL BILIRUBIN” value [3] was 0.2 mg/dL, the “TOTAL PROTEIN” value [3] was 6.3 G/DL and the “URIC ACID” value [3] was 1.8 mg/dL.
